Kd and IC50 data for 1 compound are collected here from US20250332300A1 (priority 2024, published 2025).

What all share (format): binding
The target of assay [1] is T1, mouse HER2 (23-653) (Mus musculus, UniProt P70424). As to the kind of experiment: Surface plasmon resonance (SPR) for assessment of peptide affinity, mouse HER2. Particulars: SPR, mouse HER2 extracellular domain, 25° C., 1:1 binding model; read-out: moHER2-SPR-ONC KD. From the text:
Each protein was immobilized either onto a SA sensorchip (Cytiva, BR-1005-31) or CM5 sensorchip (Cytiva, BR-1005-30) to a density of 800-2000 RU.
For orientation: Surface plasmon resonance follows binding to a sensor surface in real time, without labels.

Assay [2] concerns the target T2, human HER2 (23-652) (Homo sapiens, UniProt P04626). As to the kind of experiment: TR-FRET competition assay for peptide potency, human HER2. Also on record: towards human HER2 (23-652) and mouse HER2 (23-653); made in house; host or cells: mammalian cells. Particulars: read-out: huHER2 TR-FRET IC50.
Assay [3] concerns the target T1, mouse HER2 (23-653). As to the kind of experiment: TR-FRET competition assay for peptide potency, mouse HER2. Details: mouse HER2 (23-653) using a Cy5 labeled peptide as a probe; made in house; host or cells: mammalian cells. The note with it: TR-FRET competition with Cy5 labeled peptide probe, 0.1 nM mouse HER2, 24 h incubation; read-out: moHER2 TR-FRET IC50. In general terms: In TR-FRET formats the signal depends on donor and acceptor labels being close together.

Assay [4] deals with T2, human HER2 (23-652). As to the kind of experiment: Surface plasmon resonance (SPR) for assessment of peptide affinity, human HER2. Particulars: SPR, human HER2 extracellular domain, 25° C., 1:1 binding model; read-out: huHER2-SPR-ONC KD. How it is done:
Each protein was immobilized either onto a SA sensorchip (Cytiva, BR-1005-31) or CM5 sensorchip (Cytiva, BR-1005-30) to a density of 800-2000 RU. […] For the assay setup the same conditions (flow rate, running buffer, peptide dilution) as described above were used. In a first step the Anti Fc IgG Ab (from Human Antibody Capture Kit, Ref. 29234600, Cytiva) was diluted into acetate pH 5.0 at 25 ug/mL and immobilized at a flow rate of 10 uL/min over 360 s to reach a density around 6000 RU. […] The peptides were tested with an association time of 280 s followed by a dissociation time of 3000 s at a flow rate of 30 uL/min. The regeneration was done using 3 M magnesium chloride regeneration solution as obtained with a contact time of 30 s at a flow rate of 10 uL/min. Curve fitting was performed using the BiacoreTM 8K evaluation software.

What is called Kd is the equilibrium constant for the complex coming apart. Broadly, the IC50 is the concentration needed to halve the response being measured.

T1 sequence (P70424 23-653): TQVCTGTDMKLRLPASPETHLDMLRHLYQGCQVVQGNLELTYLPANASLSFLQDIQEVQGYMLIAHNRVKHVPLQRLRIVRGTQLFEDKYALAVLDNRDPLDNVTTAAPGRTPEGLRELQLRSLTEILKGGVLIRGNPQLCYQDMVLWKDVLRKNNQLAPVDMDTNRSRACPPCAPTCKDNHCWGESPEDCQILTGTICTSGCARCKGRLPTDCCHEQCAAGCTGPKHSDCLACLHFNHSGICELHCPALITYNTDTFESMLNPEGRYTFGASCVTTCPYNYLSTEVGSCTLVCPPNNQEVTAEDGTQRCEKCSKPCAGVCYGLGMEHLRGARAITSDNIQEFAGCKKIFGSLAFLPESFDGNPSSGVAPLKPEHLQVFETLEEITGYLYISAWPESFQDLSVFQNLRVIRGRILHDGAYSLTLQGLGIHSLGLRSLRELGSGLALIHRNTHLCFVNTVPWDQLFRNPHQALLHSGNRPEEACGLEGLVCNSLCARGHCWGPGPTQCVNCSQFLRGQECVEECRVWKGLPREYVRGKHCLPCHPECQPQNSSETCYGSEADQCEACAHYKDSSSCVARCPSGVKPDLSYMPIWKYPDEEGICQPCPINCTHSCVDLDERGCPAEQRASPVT
T2 sequence (P04626 23-652): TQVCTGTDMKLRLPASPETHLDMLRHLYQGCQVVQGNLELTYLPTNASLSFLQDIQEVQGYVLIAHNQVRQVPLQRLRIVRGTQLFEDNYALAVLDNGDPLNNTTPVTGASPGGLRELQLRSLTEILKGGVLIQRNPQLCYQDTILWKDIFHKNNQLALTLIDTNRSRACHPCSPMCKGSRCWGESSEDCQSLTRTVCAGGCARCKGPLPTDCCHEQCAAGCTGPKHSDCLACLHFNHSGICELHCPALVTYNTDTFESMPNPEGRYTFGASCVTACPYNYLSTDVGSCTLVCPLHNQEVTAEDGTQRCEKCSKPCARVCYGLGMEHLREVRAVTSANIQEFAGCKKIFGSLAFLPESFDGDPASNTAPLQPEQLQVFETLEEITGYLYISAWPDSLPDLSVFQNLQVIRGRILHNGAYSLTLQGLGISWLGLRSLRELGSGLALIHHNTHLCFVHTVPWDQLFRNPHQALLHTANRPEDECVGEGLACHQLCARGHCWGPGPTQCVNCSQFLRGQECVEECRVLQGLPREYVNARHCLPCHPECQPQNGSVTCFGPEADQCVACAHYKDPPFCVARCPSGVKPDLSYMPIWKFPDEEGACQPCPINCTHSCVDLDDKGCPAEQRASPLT

For `CC(=O)NCCCC[C@H]1C(=O)N[C@@H](Cc2c[nH]c3ccc(O)cc23)C(=O)N[C@@H](Cc2c[nH]c3ccccc23)C(=O)N[C@@H](C2CC2)C(=O)N(C)[C@H](C(=O)N(C)[C@@H](Cc2ccc(F)cc2)C(=O)N[C@@H](CCCCNC(=O)c2ccc([N+](C)(C)C)nc2)C(N)=O)CNC(=O)CCC[C@H](NC(C)=O)C(=O)N[C@@H](Cc2ccc(O)cc2)C(=O)N[C@@H](CO)C(=O)N(C)[C@@H](CCc2ccccc2)C(=O)N1C` [Example F2], the dissociation constant Kd on mouse HER2 (23-653) [1] and on human HER2 (23-652) [4] was under 0.1 nM each time. The IC50 is under 0.1 nM at human HER2 (23-652) [2] and 0.2 nM on mouse HER2 (23-653) [3].
